According to patent publication US20250222018A1, “METHODS OF USING AVERMECTIN COMPOSITIONS FOR THE TREATMENT OF PAIN AND DOSING REGIMENS” (L4 BIO LLC, priority 2022, published 2025):

Tested on: pentylenetetrazol (PTZ)-induced ictal brain activity
Test: Modulation of pentylenetetrazol (PTZ)-induced seizures, BOLD fMRI in rats
Type: in vivo, male Wistar rats
Conditions: for PTZ-induced brain activity, positive control compounds: Alprazolam 3 mg/kg i.p., 1 dose, no dose printed for Diazepam
Procedure: Functional MRI (fMRI) was performed using a high-field preclinical MRI system in anesthetized male Wistar rats in order to determine the modulation of pentylenetetrazol (PTZ)-induced ictal brain activity by chronic treatment with test compound (TC). […] Vehicle and 3 mg/kg Alprazolam served as controls (see, Table 11) Seizures were induced with PTZ in each experimental group. A schematic of the study design can be seen in FIG. 6. Various physiological parameters were also measured throughout the experiment including body weight, CO2 levels, blood pH, and heart rate. […] Vehicle and 3 mg/kg Alprazolam served as controls (see, Table 12).

| Structure (SMILES) | PTZ-induced brain activity, positive control compounds | brain regions with statistical significance of BOLD fMRI AUC, Vehicle vs. Alprazolam (FIG. 7A, Alprazolam 3 mg/kg+PTZ, two-way ANOVA) |
| --- | --- | --- |
| Cc1nnc2n1-c1ccc(Cl)cc1C(c1ccccc1)=NC2 [Alprazolam] | effectively cancelled PTZ-induced brain activity with high statistical significance in all tested brain regions | in all |
| CN1C(=O)CN=C(c2ccccc2)c2cc(Cl)ccc21 [Diazepam] | effectively cancelled PTZ-induced brain activity with high statistical significance in all tested brain regions | – |
